According to the NIST ThermoML archive (doi:10.1016/j.tca.2013.09.032):
± gives the expanded uncertainty stated by the source.

Settings: 101.33 kPa, Crystal, Vacuum adiabatic calorimetry

Cc1cc2nc3c(=O)[nH]c(=O)nc-3n(C[C@H](O)[C@H](O)[C@H](O)CO)c2cc1C [riboflavin]
Settings | molar entropy [J/K/mol]
1 K | 0.0261 ± 0.015
2 K | 0.105 ± 0.017
3 K | 0.235 ± 0.019
4 K | 0.418 ± 0.021
5 K | 0.653 ± 0.024
6 K | 0.941 ± 0.028
7 K | 1.28 ± 0.032
8 K | 1.66 ± 0.036
9 K | 2.1 ± 0.041
10 K | 2.58 ± 0.046
15 K | 5.898 ± 0.076
20 K | 10.48 ± 0.11
25 K | 15.97 ± 0.13
30 K | 22.23 ± 0.13
35 K | 29.06 ± 0.15
40 K | 36.3 ± 0.17
45 K | 43.84 ± 0.19
50 K | 51.59 ± 0.22
60 K | 67.55 ± 0.26
70 K | 83.87 ± 0.31
80 K | 100.3 ± 0.4
90 K | 116.8 ± 0.5
100 K | 133.4 ± 0.5
110 K | 149.9 ± 0.5
120 K | 166.2 ± 0.6
130 K | 182.4 ± 0.6
140 K | 198.4 ± 0.6
150 K | 214.3 ± 0.6
160 K | 230.1 ± 0.6
170 K | 245.7 ± 0.7
180 K | 261.3 ± 0.7
190 K | 276.8 ± 0.7
200 K | 292.2 ± 0.7
210 K | 307.5 ± 0.8
220 K | 322.7 ± 0.8
230 K | 337.9 ± 0.8
240 K | 353 ± 0.8
250 K | 368 ± 0.9
260 K | 383 ± 0.9
270 K | 397.9 ± 0.9
273.15 K | 402.6 ± 0.9
280 K | 412.8 ± 0.9
290 K | 427.7 ± 0.9
298.15 K | 439.8 ± 1
310 K | 457.3 ± 1
320 K | 472.1 ± 1
322 K | 475 ± 1
